Assay results from PMC5917010, “Structural basis for GPR40 allosteric agonism and incretin stimulation” (Nature Communications, 2018).

Experiments:
GFP = assay: cAMP accumulation assay, GFP control
Protocol: HEK293 cells transiently transfected with Promega’s cAMP response element (CRE/luc2P) and a GPR40 construct were plated (40K cells/well) into 96-well microtiter plates using Dulbecco’s Modified Eagle’s Medium (DMEM) supplemented with 10% FBS, 20 mM HEPES, pH 7.4, 100 U/mL Penicillin, 100 µg/mL Streptomycin, and 800 µg/mL Geneticin. Test compounds were serially diluted three-fold in 100% DMSO and immediately diluted in media. […] EC50 values were calculated using a four-parameter logistic curve fitting equation.

human PPARgama = molecular target: T1, human PPARgama (Homo sapiens, UniProt P37231); assay: human PPARgamma binding; details: Supplementary Table 1
T1 sequence (P37231 1-505): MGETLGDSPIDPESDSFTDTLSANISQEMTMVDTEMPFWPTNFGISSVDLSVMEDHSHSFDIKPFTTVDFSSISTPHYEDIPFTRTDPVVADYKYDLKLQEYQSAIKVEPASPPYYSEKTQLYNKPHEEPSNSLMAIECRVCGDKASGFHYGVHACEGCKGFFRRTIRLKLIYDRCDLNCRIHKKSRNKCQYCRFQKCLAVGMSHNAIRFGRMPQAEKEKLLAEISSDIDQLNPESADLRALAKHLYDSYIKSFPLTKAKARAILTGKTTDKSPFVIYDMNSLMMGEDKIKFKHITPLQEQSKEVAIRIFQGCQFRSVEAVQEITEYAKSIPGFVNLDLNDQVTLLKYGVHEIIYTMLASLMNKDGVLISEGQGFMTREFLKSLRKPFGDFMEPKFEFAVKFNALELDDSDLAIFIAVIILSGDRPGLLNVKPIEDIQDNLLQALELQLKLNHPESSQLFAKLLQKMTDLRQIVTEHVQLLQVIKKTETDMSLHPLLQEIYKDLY

C57Bl/6 mice = assay: Incretin secretion assay in C57Bl/6 mice; assay type: in vivo, mouse; details: for plasma PYY level: Fig. 3e; for plasma total GLP-1: wild type C57BL/6 mice
Protocol: Nine week old male C57Bl/6 mice (Envigo, Indianapolis) were used. The night before the incretin assay, mice were transferred to clean cages and fasted overnight. On the morning of the assay, the mice were weighed and randomized by block randomization into groups based on body weight (N = 6) so each group had similar mean and standard deviation of body weight. […] Animals were dosed with vehicle or the test article by oral gavage. Group allocations were not blinded from the experimenters who collected the data. The mice were sacrificed at 0.5, 1, 2, 4, or 8 h post the compound treatment. Blood was taken by cardiac puncture into EDTA tubes containing DPPIV inhibitor and aprotinin cocktail after CO2 euthanization. The final DPPIV inhibitor concentration was 50 µM and aprotinin was 250 K IU/mL. Blood samples were centrifuged at 3000×g for 5 min and plasma transferred into 96 well plates. Plasma total GLP-1 and active GIP levels were measured by ELISA assays that were developed in-house. Data were expressed as mean±s.e.m. […] Cook’s distance was also calculated from linear regression. All animals were included in the analysis with their individual Cook’s distance < 1. Significance is denoted at p < 0.05.

Mouse GPR40 = Mouse GPR40 (Mus musculus, UniProt Q76JU9); assay: Mouse GPR40 b-arrestin; assay type: cell-based
Rat GPR40 = Rat GPR40 (Rattus norvegicus, UniProt Q8K3T4); assay: Rat GPR40 b-arrestin; assay type: cell-based
Human GPR120 [1] = molecular target: T2, Human GPR120 (Homo sapiens, UniProt Q5NUL3); assay: Human GPR120 b-arrestin; assay type: cell-based; details: Supplementary Table 1
T2 sequence (Q5NUL3 1-361): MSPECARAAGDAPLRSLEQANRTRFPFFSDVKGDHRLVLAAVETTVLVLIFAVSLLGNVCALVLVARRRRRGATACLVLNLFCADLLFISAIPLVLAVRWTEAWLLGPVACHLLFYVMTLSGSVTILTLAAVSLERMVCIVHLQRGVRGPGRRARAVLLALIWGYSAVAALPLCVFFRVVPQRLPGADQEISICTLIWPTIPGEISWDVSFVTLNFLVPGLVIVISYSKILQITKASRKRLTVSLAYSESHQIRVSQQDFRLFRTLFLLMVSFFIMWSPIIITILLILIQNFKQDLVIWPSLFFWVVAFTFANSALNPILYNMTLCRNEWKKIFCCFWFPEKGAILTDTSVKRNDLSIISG

Human GPR120 [2] = molecular target: T2, Human GPR120; assay: Human GPR120 Calcium (FLIPR); assay type: cell-based; details: Supplementary Table 1
Mouse GPR120 = molecular target: T3, Mouse GPR120 (Mus musculus, UniProt Q7TMA4); assay: Mouse GPR120 b-arrestin; assay type: cell-based; details: Supplementary Table 1
T3 sequence (Q7TMA4 1-361): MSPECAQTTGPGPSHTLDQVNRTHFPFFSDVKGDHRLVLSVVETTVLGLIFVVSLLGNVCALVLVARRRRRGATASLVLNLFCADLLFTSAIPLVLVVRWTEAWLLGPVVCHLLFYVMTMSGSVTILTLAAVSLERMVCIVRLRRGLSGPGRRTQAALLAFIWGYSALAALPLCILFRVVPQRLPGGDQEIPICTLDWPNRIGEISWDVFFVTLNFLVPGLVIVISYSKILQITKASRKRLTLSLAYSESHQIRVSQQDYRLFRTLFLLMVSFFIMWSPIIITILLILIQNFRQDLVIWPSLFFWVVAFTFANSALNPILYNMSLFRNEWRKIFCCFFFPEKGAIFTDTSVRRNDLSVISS

human PPARalpha = molecular target: T4, human PPARalpha (Homo sapiens, UniProt Q07869); assay: human PPARalpha binding; details: Supplementary Table 1
T4 sequence (Q07869 1-468): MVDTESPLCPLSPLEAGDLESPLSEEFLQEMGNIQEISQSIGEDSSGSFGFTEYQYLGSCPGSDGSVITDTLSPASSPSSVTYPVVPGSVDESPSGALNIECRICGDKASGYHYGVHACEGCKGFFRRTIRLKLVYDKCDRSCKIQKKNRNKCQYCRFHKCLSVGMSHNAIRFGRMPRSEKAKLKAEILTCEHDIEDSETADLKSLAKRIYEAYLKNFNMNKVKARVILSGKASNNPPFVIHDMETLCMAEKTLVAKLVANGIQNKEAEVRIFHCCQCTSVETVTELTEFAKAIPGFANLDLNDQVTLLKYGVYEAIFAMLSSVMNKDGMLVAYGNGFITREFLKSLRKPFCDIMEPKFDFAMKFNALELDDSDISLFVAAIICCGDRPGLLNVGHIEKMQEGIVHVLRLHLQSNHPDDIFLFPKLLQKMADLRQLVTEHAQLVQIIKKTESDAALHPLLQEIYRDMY

Chain of Mouse GPR40 (Q76JU9 whole entry): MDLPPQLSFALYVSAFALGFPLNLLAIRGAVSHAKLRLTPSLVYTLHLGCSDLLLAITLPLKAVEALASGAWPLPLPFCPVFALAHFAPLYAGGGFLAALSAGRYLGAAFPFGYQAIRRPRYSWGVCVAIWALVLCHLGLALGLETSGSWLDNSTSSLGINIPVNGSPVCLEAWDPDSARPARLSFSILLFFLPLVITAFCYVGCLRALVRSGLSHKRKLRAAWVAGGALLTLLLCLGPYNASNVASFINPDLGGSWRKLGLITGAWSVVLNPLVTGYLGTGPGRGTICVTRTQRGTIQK
Chain of Rat GPR40 (Q8K3T4 whole entry): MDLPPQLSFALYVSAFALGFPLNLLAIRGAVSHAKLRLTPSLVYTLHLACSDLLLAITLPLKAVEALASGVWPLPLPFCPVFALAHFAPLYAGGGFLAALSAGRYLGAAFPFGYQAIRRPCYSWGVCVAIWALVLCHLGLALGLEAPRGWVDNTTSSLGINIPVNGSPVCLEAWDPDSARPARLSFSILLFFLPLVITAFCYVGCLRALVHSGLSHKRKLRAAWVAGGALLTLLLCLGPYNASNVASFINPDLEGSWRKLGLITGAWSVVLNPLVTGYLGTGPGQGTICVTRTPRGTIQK

SMILES | cAMP accumulation EC50, GFP (GFP; GFP control, Fig. 6c,d) | Ki (human PPARgama) | plasma PYY level (C57Bl/6 mice) | plasma total GLP-1 (C57Bl/6 mice; oral treatment at 30 mg/kg) | EC50 (Mouse GPR40) | EC50 (Rat GPR40) | EC50 (Human GPR120 [1]) | EC50 (Human GPR120 [2]) | EC50 (Mouse GPR120) | Ki (human PPARalpha) | EC50 (GFP; Homo sapiens, read-out: cAMP accumulation EC50, GFP) | plasma active GIP concentrations (C57Bl/6 mice; oral gavage, up to 8 h) | plasma total GLP-1 concentrations (C57Bl/6 mice; oral gavage, up to 8 h) | plasma total GLP-1 (C57Bl/6 mice; oral treatment at 10 mg/kg, 4-hour window) | Emax (Mouse GPR40) | Emax (Rat GPR40)
Cc1cc(OCCCS(C)(=O)=O)cc(C)c1-c1cccc(COc2ccc3c(c2)OC[C@H]3CC(=O)O)c1 [TAK-875] | no fit | > 10 µM | no effect on plasma PYY level | no effect on plasma total GLP-1 | 0.0086 µM | 0.036 µM | > 100 µM | > 50 µM | > 50 µM | > 10 µM | – | – | – | – | – | –
COc1ccc(C(=O)N(CC(C)(C)C)c2cccc(C)n2)c(N2CCC(c3cc4ccc([C@@H](CC(=O)O)C5CC5)cc4o3)CC2)c1 [compound 1] | – | > 10 µM | no effect on plasma PYY level | – | 0.0016 µM | 0.0021 µM | > 100 µM | > 50 µM | > 50 µM | > 10 µM | > 30 µM | significantly increases plasma active GIP concentrations up to 8 h | significantly increases plasma total GLP-1 concentrations up to 8 h | sustains an elevated level of plasma total GLP-1 | 146% | 163%
